Assay results: the supplement of paper PMC5908809

Tests used:
[1] = test system: normal NK cells expanded with K562-aAPC; assay: drug sensitivity score (DSS) (DSS units); higher = more sensitive; extreme values may be limits of the assay; details: 72 h; IL-2 2.5 ng/mL
Description: (§1)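 Drug sensitivity and resistance testing on K562-aAPC-expanded normal NK cells: 5 concentrations (10-fold steps over a 10,000-fold range), 72 h at 37 °C, viability by CellTiter-Glo normalised to DMSO and benzethonium chloride controls; DSS from the fitted curve.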

KAI3 (IL-2 2.5 ng/mL) [2] = assay: percent inhibition of viability; higher = more inhibition; details: 72 h
IMC-1 (IL-2 20 ng/mL) [3] = assay: as above; details: 72 h
KHYG-1 (IL-2 2.5 ng/mL) [4] = assay: as above; details: 72 h
DERL-7 (IL-2 2.5 ng/mL) [5] = assay: as above; details: 72 h
[6] = test system: normal primary NK cells, pool 1 (3 donors) (IL-2 2.5 ng/mL); assay: as above; details: 72 h
NK-92 (IL-2 2.5 ng/mL) [7] = assay: as above; details: 72 h
NKL (IL-2 2.5 ng/mL) [8] = assay: as above; details: 72 h
YT (IL-2 2.5 ng/mL) [9] = assay: as above; details: 72 h
[10] = test system: normal primary NK cells, pool 3 (3 donors) (IL-2 2.5 ng/mL); assay: as above; details: 72 h
SNK-6 (IL-2 2.5 ng/mL) [11] = assay: as above; details: 72 h
[12] = test system: normal primary NK cells, pool 1 (3 donors), resting (IL-2 0 ng/mL); assay: as above; details: 72 h
[13] = test system: normal primary NK cells, pool 2 (3 donors) (IL-2 2.5 ng/mL); assay: as above; details: 72 h
NK-YS (IL-2 2.5 ng/mL) [14] = assay: as above; details: 72 h
KAI3 (IL-2 2.5 ng/mL) [15] = assay: drug sensitivity score (DSS) (DSS units); higher = more sensitive; extreme values may be limits of the assay; details: 72 h
IMC-1 (IL-2 20 ng/mL) [16] = assay: as above; details: 72 h
KHYG-1 (IL-2 2.5 ng/mL) [17] = assay: as above; details: 72 h
DERL-7 (IL-2 2.5 ng/mL) [18] = assay: as above; details: 72 h
[19] = test system: normal primary NK cells, pool 1 (3 donors) (IL-2 2.5 ng/mL); assay: as above; details: 72 h
NK-92 (IL-2 2.5 ng/mL) [20] = assay: as above; details: 72 h
NKL (IL-2 2.5 ng/mL) [21] = assay: as above; details: 72 h
YT (IL-2 2.5 ng/mL) [22] = assay: as above; details: 72 h
[23] = test system: normal primary NK cells, pool 3 (3 donors) (IL-2 2.5 ng/mL); assay: as above; details: 72 h
SNK-6 (IL-2 2.5 ng/mL) [24] = assay: as above; details: 72 h
[25] = test system: normal primary NK cells, pool 1 (3 donors), resting (IL-2 0 ng/mL); assay: as above; details: 72 h
[26] = test system: normal primary NK cells, pool 2 (3 donors) (IL-2 2.5 ng/mL); assay: as above; details: 72 h
NK-YS (IL-2 2.5 ng/mL) [27] = assay: as above; details: 72 h
[28] = test system: normal NK cells expanded with K562-aAPC; assay: percent inhibition of viability; higher = more inhibition; details: 72 h, IL-2 2.5 ng/mL
Description: as §1

CCn1cc(-c2ccnc3[nH]c(-c4cccc(CN(C)C)c4)cc23)c(-c2ccc(NC(=O)N(C)C)cc2)n1 (max concentration tested 1000 nM)
Details	drug sensitivity score
DERL-7 (IL-2 2.5 ng/mL) [18]	14.7
IMC-1 (IL-2 20 ng/mL) [16]	6.3
KAI3 (IL-2 2.5 ng/mL) [15]	4.01
KHYG-1 (IL-2 2.5 ng/mL) [17]	8.32
NK-92 (IL-2 2.5 ng/mL) [20]	5.05
NK-YS (IL-2 2.5 ng/mL) [27]	16.5
NKL (IL-2 2.5 ng/mL) [21]	3.99
SNK-6 (IL-2 2.5 ng/mL) [24]	18.6
YT (IL-2 2.5 ng/mL) [22]	4.47
[1]	8.97
[19]	0
[23]	0
[25]	0
[26]	0

percent inhibition of viability [%]
Details	0.1 nM	1 nM	10 nM	100 nM	1000 nM
DERL-7 (IL-2 2.5 ng/mL) [5]	-1.42	-13.7	13.4	68.1	56.9
IMC-1 (IL-2 20 ng/mL) [3]	-3.05	2.14	9.34	18.7	69
KAI3 (IL-2 2.5 ng/mL) [2]	0.71	-0.96	15.3	16.4	34.5
KHYG-1 (IL-2 2.5 ng/mL) [4]	-0.5	3.29	9.71	39.2	54
NK-92 (IL-2 2.5 ng/mL) [7]	-10.8	-15.2	-2.48	28.9	35.5
NK-YS (IL-2 2.5 ng/mL) [14]	-3.92	-3.4	26.2	69.9	66.9
NKL (IL-2 2.5 ng/mL) [8]	-15	-6.31	2.14	11.6	43.2
SNK-6 (IL-2 2.5 ng/mL) [11]	20.9	18.6	35	71.1	65.4
YT (IL-2 2.5 ng/mL) [9]	2.03	4.54	11.2	19.1	39.5
[6]	6.54	-2.75	2.78	-10.4	-5.89
[10]	-9.36	-0.39	7.48	-0.31	7.08
[12]	10.8	-0.01	-0.34	-11.5	8.25
[13]	-0.19	2.58	11.4	2.17	5.89
[28]	-5.72	-6.24	-0.83	49.9	32

CN1CCC(COc2cnc(-c3cccc(Cn4nc(-c5cccc(C#N)c5)ccc4=O)c3)nc2)CC1 (max concentration tested 1000 nM)
Details	drug sensitivity score
DERL-7 (IL-2 2.5 ng/mL) [18]	2.76
IMC-1 (IL-2 20 ng/mL) [16]	0
KAI3 (IL-2 2.5 ng/mL) [15]	0
KHYG-1 (IL-2 2.5 ng/mL) [17]	0.39
NK-92 (IL-2 2.5 ng/mL) [20]	0
NK-YS (IL-2 2.5 ng/mL) [27]	0
NKL (IL-2 2.5 ng/mL) [21]	0.35
SNK-6 (IL-2 2.5 ng/mL) [24]	1.09
YT (IL-2 2.5 ng/mL) [22]	0
[1]	0
[19]	0
[23]	0
[25]	0
[26]	0

percent inhibition of viability [%]
Details	0.1 nM	1 nM	10 nM	100 nM	1000 nM
DERL-7 (IL-2 2.5 ng/mL) [5]	-4.25	-4.18	3.15	4.81	39.5
IMC-1 (IL-2 20 ng/mL) [3]	-6.71	-2.19	-0.81	-1.98	-3.26
KAI3 (IL-2 2.5 ng/mL) [2]	-0.84	-8.6	-8.84	-7.75	-3.69
KHYG-1 (IL-2 2.5 ng/mL) [4]	0.03	-2.13	-6.37	1.52	15.3
NK-92 (IL-2 2.5 ng/mL) [7]	-7.1	-4.45	1.23	-11.4	6.42
NK-YS (IL-2 2.5 ng/mL) [14]	-1.64	-6.91	-7.12	-5.26	-5.69
NKL (IL-2 2.5 ng/mL) [8]	4.34	-14.9	-8.56	-9.54	20.4
SNK-6 (IL-2 2.5 ng/mL) [11]	10.8	3.77	-9.85	14	13.7
YT (IL-2 2.5 ng/mL) [9]	4	0.64	-1.46	-0.52	-0.42
[6]	-7	-6.88	-13.8	1.64	4.06
[10]	-8.96	-8.97	-7.75	-16	-13.7
[12]	-5.12	-27.4	-19.6	3.81	3.64
[13]	-17.1	4.11	-9.87	-10	-13.3
[28]	-4.81	-10.8	-1.01	-5.56	4.27

CCOc1ccn(-c2ccc(F)cc2)c(=O)c1C(=O)Nc1ccc(Oc2ccnc(N)c2Cl)c(F)c1 (max concentration tested 2500 nM)
Details	drug sensitivity score
DERL-7 (IL-2 2.5 ng/mL) [18]	0
IMC-1 (IL-2 20 ng/mL) [16]	1.25
KAI3 (IL-2 2.5 ng/mL) [15]	0.35
KHYG-1 (IL-2 2.5 ng/mL) [17]	0
NK-92 (IL-2 2.5 ng/mL) [20]	0.14
NK-YS (IL-2 2.5 ng/mL) [27]	0.06
NKL (IL-2 2.5 ng/mL) [21]	0
SNK-6 (IL-2 2.5 ng/mL) [24]	0.23
YT (IL-2 2.5 ng/mL) [22]	1.85
[1]	0
[19]	0
[23]	0
[25]	0
[26]	0

percent inhibition of viability [%]
Details	0.25 nM	2.5 nM	25 nM	250 nM	2500 nM
DERL-7 (IL-2 2.5 ng/mL) [5]	0.56	6.06	-1.35	-3.94	-13.7
IMC-1 (IL-2 20 ng/mL) [3]	1.35	4.61	9.25	10.7	18.1
KAI3 (IL-2 2.5 ng/mL) [2]	-2.82	-5.11	1.22	-8.32	20.1
KHYG-1 (IL-2 2.5 ng/mL) [4]	2.8	3.63	7.75	3.92	7.23
NK-92 (IL-2 2.5 ng/mL) [7]	3.4	-2.02	21.5	-9.18	16.5
NK-YS (IL-2 2.5 ng/mL) [14]	2.13	-0.09	0.55	-3.25	13.2
NKL (IL-2 2.5 ng/mL) [8]	-8.21	-0.56	-2.88	6.9	-2.79
SNK-6 (IL-2 2.5 ng/mL) [11]	22.9	33.8	31.2	18.3	22.9
YT (IL-2 2.5 ng/mL) [9]	2.07	4.23	5.47	0.52	37
[6]	0.3	-5.73	-0.6	-11.2	-8.87
[10]	-11.7	1.36	-4.15	-4.08	-3.34
[12]	1.56	-12.4	-1.07	-26.3	-16.3
[13]	-3.75	2.69	-0.75	-6	3.09
[28]	2.01	1.6	-0.61	0.57	7.12

C[C@@]1(C(=O)Nc2ccc(F)nc2)CCCN1c1nc(Nc2cc(C3CC3)n[nH]2)c2cccn2n1 (max concentration tested 10000 nM)
Details	drug sensitivity score
DERL-7 (IL-2 2.5 ng/mL) [18]	13.9
IMC-1 (IL-2 20 ng/mL) [16]	4.66
KAI3 (IL-2 2.5 ng/mL) [15]	4.58
KHYG-1 (IL-2 2.5 ng/mL) [17]	7.7
NK-92 (IL-2 2.5 ng/mL) [20]	7.43
NK-YS (IL-2 2.5 ng/mL) [27]	12.7
NKL (IL-2 2.5 ng/mL) [21]	0
SNK-6 (IL-2 2.5 ng/mL) [24]	10.8
YT (IL-2 2.5 ng/mL) [22]	5.62
[1]	7.77
[19]	0.16
[23]	0
[25]	2.52
[26]	0

percent inhibition of viability [%]
Details	1 nM	10 nM	100 nM	1000 nM	10000 nM
DERL-7 (IL-2 2.5 ng/mL) [5]	-1.6	5.82	2.68	74.3	60.1
IMC-1 (IL-2 20 ng/mL) [3]	1.89	-6.3	0.07	3.22	76.3
KAI3 (IL-2 2.5 ng/mL) [2]	-1.42	-2.58	4.51	22.4	41.7
KHYG-1 (IL-2 2.5 ng/mL) [4]	-3.05	-5.44	1.8	30.1	70.8
NK-92 (IL-2 2.5 ng/mL) [7]	1.84	11	7.85	33.8	57.6
NK-YS (IL-2 2.5 ng/mL) [14]	-3.69	-4.66	4.73	65.5	77.1
NKL (IL-2 2.5 ng/mL) [8]	-16.6	-4.3	-14.1	1.87	-5.96
SNK-6 (IL-2 2.5 ng/mL) [11]	2.3	-11.9	-15.8	57.8	74.8
YT (IL-2 2.5 ng/mL) [9]	3.08	1.72	7.96	25	51.8
[6]	-6.95	-10	3.68	2.67	12.4
[10]	-3.23	-1.9	0.53	7.47	-2.1
[12]	-9	-4.43	15.4	-2.47	51.6
[13]	-2.95	-4.83	-5.48	-1.42	10.7
[28]	-9.12	-3.4	-6.53	45.5	42.2
